From EP0773292A1, “Immortalised embryonic hippocampal cells and their use” (BAYER AG, priority 1995, dated 1997) come the findings set out here.

Common to all, as to assay type: cell-based, murine
The subject of assay [1] is HC e/n XVB cells. Kind of assay: Electrophysiology: whole-cell patch-clamp, ligand-activated currents. The conditions noted are these: for ligand-activated currents: membrane potential clamped to -70mV. On the procedure: (§1) Electrophysiological setup: Membrane currents were measured with the patch-clamp technique in the whole-cell recording configuration (Hamill et al. 1981, Pfluegers Arch. 391:85-100). Current signals were amplified with conventional electronics (EPC-9 amplifier, HEKA Elektronik GmbH, Lambrecht, Germany), filtered at 10kHz, and sampled at 5 kHz by an interface connected to an IBM AT-compatible computer system, which also served as a stimulus generator.
(§2) Solutions and electrodes: The standard bathing solution contained (in mM): Nacl 150, KCL 5, MgCl2 1.8, HEPES 5, and glucose 10. In some experiments an equimolar amount of NaCl was replaced by 5mM BaCl2. Recording pipettes had resistances about 5MΩ (Hilgenberg, Malsfeld, Germany). The pipettes contained (in mM): KCL 140, CaCl2 0.5, EGTA 5, MgCl2 2, and HEPES 10. The pH was adjusted to 7.4. In some experiments the pipette solution was designed to minimize the contribution of voltage-activated currents. In this case, investigating the ligand-activated currents, the pipette solution contained (in mM): CsCl 140, EGTA 10, and HEPES 10.
(§3) Ligands were dissolved in the extracellular saline solution and applied via an U-tube application system. To record ligand-induced currents, the membrane potential was clamped to -70mV. For measurements of voltage-activated currents, cells were held at -70mV and every second the membrane was stepped through a 50 msec. de- or hyperpolarising test pulse to a potential between -170 and +20 mV.
For orientation: In patch-clamp work, channel activity is measured electrically.

The test system of assay [2] is HNMMCV13.1.E. The assay is described as above. The conditions noted are these: 13.1.E; membrane potential clamped to -70mV. On the procedure: as §1, §2, §3
The subject of assay [3] is HC e/n XV.B cells. Nature of the assay: Ca2+-imaging (Fura-2), rise in intracellular calcium. On the procedure:
(§4) Fluorescent Probe: Dynamic changes of intracellular calcium concentration were measured using the Fura-2 fluorescent probe (Roe et al. 1990, Cell Calcium 11:63-73). This fluorescent dye was chosen because of its selectivity, high quantum yield and extinction co-efficient. Fura-2 permeates the living cell as a acetoxymethylester and becomes trapped within the cell after hydrolysis by intracellular esterases. The calcium-sensitive free acid of Fura-2 is able to bind to calcium ions inside the cell. Fura-2 has an excitation maximum at 380 nm and the Fura2/calcium complex peaks at 340 nm. A change in intracellular calcium concentration was calculated by recording fluorescent video images at wavelengths of 340nm and 380nm excitation and 510nm emission and by dividing the grey values of the digitized video images of 380nm from 340nm.
(§5) Loading cells with Fura-2: A stock solution with 2mM Fura-2-acetoxymethylester in dimethylsulfoxide (DMSO) was diluted to 5-10 µM with serum free Minimal Essential Medium (MEM, Gibco) containing 1.5% bovine serum albumin and 5 mM calcium chloride. The cells were incubated in a Falcon 96 well plate for 45-60 minutes at 37°C. Subsequently the cells were washed twice in N-(2-Hydroxyethyl)piperazine-N'-(2-ethanesulfonic acid) (HEPES, 5mM) buffered Tyrode solution (HEPES buffered salt solution containing 130 mM NaCl, 5 mM KCl, 2 mM CaCl2, 1 mM MgCl2, 5mM NaHCO3, 11 mM Glucose).
(§6) Imaging procedure: 100 µl of Tyrode buffer was added to the plate wells and the cells were sequencially exposed to light at 340 nm and 380 nm under a fluorescent microscope (Nikon Diaphot). The exposition time was 100 ms. A series of video images at 3 second intervals was acquired and stored as digitised pictures in the image boards of an image analysis computer (Leica, Quantimet 570). After the acquisition of 8 images the test substances were applied. The grey levels of the cells, which correspond to the fluorescence intensity, were measured in the recorded video images. The ratio was determined by dividing the measured grey levels of the "380 nm images" by the grey levels of the "340 nm images" either from averaged images or from individual cells. For averaged results, the grey levels were measured over the whole images.
(§7) The cells were loaded with Fura 2/AM between day 3 and 7 in culture. A number of agonists were tested for their ability to activate specific receptors on the cell surface which leads to a rise in intracellular calcium. The rise in calcium concentration in the cytoplasm can occur after activation of specific calcium channels in the cell membrane, after activation of neurotransmitter receptors directly coupled to ion channels that are permeable to calcium ions (i.e. NMDA or AMPA type glutamate receptors), or by activation of receptors, which propagate the signal through the activation of specific G-proteins, which regulate the activity of different enzymes in the interior of the cell (Connor, Cell Calcium 14 (1993), 185-200; Crouch and Hendry, Medical Res. Rev. 13 (1993), 105-123). The activation of phospholipase C generates the second messengers diacylglycerol and inositoltriphosphate from phospholipids in the cell membrane. The binding of inositoltriphosphate to receptors localised on internal vesicles which store calcium ions leads to a transient rise in the concentration of calcium ions in the cytoplasm (Berridge, M.J. 1993, Nature 361: 315-325).
(In general: A change in cytosolic calcium serves as a functional read-out for many receptors and channels.)

Assay [4] concerns HNMMCV11.2.0. The assay is described as above. How it is done:
as §4, §5, §6, §7

Assay [5] concerns HNMMCV13.1.E. Described as above. On the procedure:
as §4, §5, §6, §7

Assay [6] has as its system HNMMCV13.1.F. The assay is described as above. How it is done: as §4, §5, §6, §7
Assay [7] concerns HNMMCV14.1.A. Described as above. How it is done: as §4, §5, §6, §7
Assay [8] deals with HNMMCV14.1.A. Nature of the assay: Electrophysiology: whole-cell patch-clamp, ligand-activated currents. On the procedure: as §1, §2, §3
Assay [9] deals with v-myc-expressing lines and clones. Nature of the assay: Induction of differentiation. The following applies: 1mM dbcAMP. How it is done: For experiments in the presence of growth factors or other differentiation inducing agents, the primary cell cultures or the immortalised cell lines were cultured in the presence of one or a combination of the following: β-FGF, 1ng/ml, (Collaborative Research), EGF; 5 ng/ml or 10 ng/ml, (Collaborative Research), NGF (10 ng/ml, Collaborative Reasearch), dibutyryl cyclic adenosine monophosphate (dbcAMP, 1mM, Sigma, Heidelberg), retinoic acid (5 µM; Sigma), IL-7 (50 U/ml), TGFα (5ng/ml).
To induce differentiation in vitro several combinations of the following factors were used: retinoic acid (RA, 10 µM), NGF, β-FGF, EGF, IL-7, TGFα, dbcAMP (1mM). In addition the effect of co-culture with cortical glial cells originating from postnatal day 0 to 1 and granule neurons originating from postnatal day 6 mice was investigated.

With `N[C@@H](CCC(=O)O)C(=O)O` [Glutamate, L-glutamate], the ligand-activated currents entry in assay [1] (XV. B (with EGF, undifferentiated)) is reported as “-”; in assay [1] (XV. B/ - EGF (differentiated)), “++ (++: 30-70% positive cells)”; in assay [2] it was “+ (+: 10-30% positive cells)”.

With `C=C(C)[C@H]1CN[C@H](C(=O)O)[C@H]1CC(=O)O` [Kainate, kainic acid], the “transient rise in intracellular calcium concentration” value in assay [3] is on record as “reproducible calcium signal”; in assay [4] it was “did not result in a transient rise in intracellular calcium concentrations”; in assay [5] it was “did not result in a transient rise in intracellular calcium concentrations”; in [6], “did not result in a transient rise in intracellular calcium concentrations”; in [7], “did not result in a transient rise in intracellular calcium concentrations”. Besides, the “transient calcium currents after the application of agonists and antagonists” value in [4], in assay [5], in assay [6] and in assay [7] was “-” in each case. The “I/V curve of the ligand response” value in assay [1] was “linear”. Further, the “ligand induced inward currents” value in assay [1] was “evoked responses with different peak amplitudes”. Also, the “reversal potential of the ligand-activated current” value in assay [1] is 0 mV. For the same compound, the ligand-activated currents entry in [8] is “+ / -”.

Consider `CCCC(=O)Nc1ncnc2c1ncn2[C@@H]1O[C@@H]2COP(=O)(O)O[C@H]2[C@H]1OC(=O)CCC` [dbcAMP, dibutyryl cyclic adenosine monophosphate], for which the “expression of MAP-2” value in assay [9] (cell line HNMMCV11.2.) is on record as “induction of the expression of MAP-2”. The “differentiation of the cells” value in [9] (v-myc-expressing lines and clones) is “induced a partial differentiation”.
